Experimental data taken from US8703822B2, “Method for removing undifferentiated and dedifferentiated stem cell” (Nanyang Polytechnic, priority 2009, dated 2014).
Values after ≈ are worked out from the molar mass of the structure shown. Like-named read-outs stand apart in the source and are kept apart here.

What was measured:
[1] = system: colon CSC cell line (Celprogen Cat#36112-39P-T25); conditions: 12.5 μg/mL, FIG. 13
CSCs = test: cytotoxic effect on CSCs, summary over colon and breast CSC lines; format: cell-based; conditions: summary of the experimental data
Experimental: Seven analogues having different side chain lengths (JC010, JC011, JC017, JC040, JC048, JC049 and JC050) were tested for their cytotoxic effect on CSCs using the resazurin cell viability assay. Two CSC cell lines were used, a colon CSC cell line (Celprogen Cat#36112-39P-T25) and a breast CSC cell line (Celprogen Cat#36102-29P-T25).

[2] = system: breast CSC cell line (Celprogen Cat#36102-29P-T25); test: resazurin cell viability assay on breast CSC cell line; format: cell-based; conditions: 12.5 μg/mL, FIG. 14
[3] = comparison value, source not given; cited from earlier work
[4] = system: undifferentiated hESCs (H1 cells); test: resazurin cell viability assay on undifferentiated H1 hESCs (FIG. 7A); format: cell-based, human; conditions: 40 μM, 24 hr and 48 hr; versus JC005, capsaicin (CAP) and DMSO
Experimental: (§1) The hESCs used are undifferentiated H1 cells, while the murine feeder cells (mouse embryonic fibroblasts (MEFs)) used are J28 C57/BL6J cells. The columns represent the means of 4 experiments while the bars represent relative fluorescence ±s.d. The control was untreated hESCs and untreated murine feeder cells (mouse embryonic fibroblasts (MEFs)) with a final DMSO concentration of 1% v/v while the final sample concentration was 40 μM. * denotes P<0.01, Student's T-test, 2-tail.
(§2) The resazurin cell viability assay was conducted on hESC, differentiated hESCs, osteoblasts, murine feeder cells (mouse embryonic fibroblasts (MEFs)), IPSCs derived from foreskin (IPS-DF19-9 and IPS-foreskin) and CSCs (colon CSCs and breast CSCs). The assay is based on the use of an indicator dye resazurin to measure the metabolic capacity of a cell. […]
(§3) In wells A12-H12, 200 μl/well DMSO were added to provide the Blank reading.
(§4) The percentage of the resazurin activity was calculated based on the following equation:
(§5) The percentage of cell death was calculated based on the following equation: % cell death=100−% activity (Eq. 2) […]
(§6) […] The plates were further incubated at 37° C. for 2 h, after which the plate was read at an excitation wavelength of 535 nm and an emission wavelength of 590 nm with a Tecan Infinite 200 microplate reader.

undifferentiated hESCs = test: dose response curves on undifferentiated hESCs (FIG. 11A); format: cell-based, human; conditions: from dose response curve FIG. 11A
Excerpt: In other words, JC010 and JC011 were very cytotoxic against undifferentiated hESCs. It can also be seen from the dose response curve in FIG. 11B, that both analogues were not cytotoxic to differentiated cells.

[5] = system: differentiated hESCs (H1); format: cell-based
Experimental: (§7) The resazurin cell viability assay was conducted on hESC, differentiated hESCs, osteoblasts, murine feeder cells (mouse embryonic fibroblasts (MEFs)), IPSCs derived from foreskin (IPS-DF19-9 and IPS-foreskin) and CSCs (colon CSCs and breast CSCs). The assay is based on the use of an indicator dye resazurin to measure the metabolic capacity of a cell. A viable cell would retain the ability to reduce resazurin to resorufin, which is a highly fluorescent compound.
as §4
(§8) The percentage of cell death was calculated based on the following equation: % cell death=100−% activity (Eq. 2)
(§9) The cells were plated in a 96-well multi-well plate 5 days before the assay. 200 μL of medium containing 10^5/mL cells (i.e. 2×10^4 cells) were used for each well.
The cells were then treated with 12.5 μg/mL of the capsaicin analogues. The final concentration of DMSO used as control was 1% v/v.
[…] The media was then removed from the wells and 100 μL of PBS buffer was added to each well. 20 μL of resazurin was added to each well to give a final resazurin concentration of 8 μg/mL. The plates were further incubated at 37° C. for 2 h, after which the plate was read at an excitation wavelength of 535 nm and an emission wavelength of 590 nm with a Tecan Infinite 200 microplate reader.
bGFG is a critical growth factor that maintains the hESCs in the undifferentiated state. Removal or withdrawal of bGFG induces hESCs to undergo differentiation.

hESC = test: Trypan Blue cell viability assay on hESC; format: cell-based, human; conditions: 40 μM; 24 hours (JC011 also 48 hr), compared to untreated hESC
Experimental: The images on the left (A and B) show untreated hESC while the images on the right (C and D) show hESC treated with 40 μM of JC010 for 24 hours. The arrows indicate trypan blue positive dead cells.
The Trypan Blue cell viability assay was conducted by first diluting 10 μL of a cell suspension with 10 μL of 0.4% w/v Trypan Blue solution. The cell suspension and Trypan Blue solution were mixed using a pipette, after which the mixture was incubated at room temperature for 10 minutes. 20 μL of the mixture was then loaded into a charged hemocytometer for visualization under 10× and 20× magnification phase optics microscopy. Cells which stain blue are dead cells.

[6] = system: murine feeder cells (mouse embryonic fibroblasts (MEFs)), J28 C57/BL6J cells; test: resazurin cell viability assay on murine feeder cells (FIG. 7B); format: cell-based; conditions: 40 μM, 24 hr and 48 hr; versus JC005, capsaicin (CAP) and DMSO
Experimental: as §1, §2, §3, §4, §5, §6

hESCs = test: light microscopy of hESC colonies cultured on murine feeder cells, hESC-selective killing; format: cell-based, human; conditions: for selective killing of hESCs (FIG. 4): 24 hr incubation; for lowest concentration at which cytotoxic effects were seen: 2.5 μg/mL = 8 μM; for killing of hESCs (light microscopic images, FIG. 2): JC010 12 and 24 hours, JC011 24 hours; for cytotoxic effect on undifferentiated hESCs (summary) / specificity (hESCs versus feeder cells), compared among JC010, JC011 and JC017: summary of the experimental data
Experimental: (§10) Using the above cell viability assays, various cell types including hESCs, differentiated hESCs, human primary astrocytes and murine feeder cells (mouse embryonic fibroblasts (MEFs)) were treated with one of the analogues synthesized in Examples 1 to 3. The cells were then visualized with 5×, 10×, 20× and 40× objectives using dark field, phase optics and fluorescence microscopy with an Olympus IX51 inverted microscope or Leica MZ8 stereomicroscope.
(§11) In the phase contrast optics images (FIGS. 1A and 1B), the hESCs are seen as dark colonies surrounded by the murine feeder cells (mouse embryonic fibroblasts (MEFs)). In the dark field images (FIGS. 1C and 1D), the hESCs are seen as bright colonies surrounded by the murine feeder cells (mouse embryonic fibroblasts (MEFs)).

[7] = system: normal human primary astrocytes; test: resazurin cell viability assay on normal human primary astrocytes (FIG. 8B); format: cell-based
Wicell H1 cells = test: dichlorofluorescin diacetate (DCFH-DA) analysis of reactive oxygen species; format: cell-based, human; conditions: 12.5 μg/mL, 3 hr
Experimental: Live adherent cells were washed with PBS solution. DCHF-DA solution was then added to the cells in PBS solution at a final working concentration of 10 μM. The mixture was then incubated at room temperature for 5 minutes, and visualized under a fluorescence microscope with FITC filters. Bright green fluorescent cells are indicative of cells with a high content of reactive oxygen species (ROS).

IPS-foreskin cells = test: resazurin cell viability assay on IPS-foreskin cells; format: cell-based; conditions: 12 μg/mL, 16-hour exposure
Experimental: as §7, §4, §8, §9
(§12) The cells were then incubated at 37° C. for about 16 h overnight in 5% CO2. The media was then removed from the wells and 100 μL of PBS buffer was added to each well. 20 μL of resazurin was added to each well to give a final resazurin concentration of 8 μg/mL. The plates were further incubated at 37° C. for 2 h, after which the plate was read at an excitation wavelength of 535 nm and an emission wavelength of 590 nm with a Tecan Infinite 200 microplate reader. […]

IPS-DF19-9 cells = test: resazurin cell viability assay on IPS-DF19-9 cells; format: cell-based; conditions: 12 μg/mL, 16-hour exposure
Experimental: as §7, §4, §8, §9, §12

[8] = system: murine feeder cells (mouse embryonic fibroblasts (MEFs)); test: light microscopy of murine feeder cells co-cultured with hESCs; format: cell-based; conditions: summary of the experimental data
Experimental: as §10, §11

SMILES: CCCCCCCCNC(=O)Cc1cc(O)ccc1O [JC026]
- selective cytotoxic activity towards undifferentiated or dedifferentiated stem cells (hESC cell line BGO1v): did not exhibit any selective cytotoxic activity

SMILES: CCCCCCCCCCCC(=O)NCc1ccc(O)c(O)c1 [JC048]
- cell death, colon CSC cell line [1]: ~45%
- cytotoxic effect on CSCs (summary) (CSCs): high cytotoxic effect
- cell death, breast CSC cell line [2]: ~55%

SMILES: COc1cc(CNC(=O)CCCC/C=C/C(C)C)ccc1O [capsaicin]
- concentration for in vitro cytotoxic effect [3]: 100 µM

SMILES: CCCCCCCCCCCCCC(=O)NCc1ccc(O)c(O)c1 [JC050]
- cell death, breast CSC cell line [2]: 25-35%

SMILES: CCCCCCCCNC(=O)NCc1ccc(O)c(O)c1 [JC010]
- relative fluorescence of treated undifferentiated hESCs (H1 cells) [4]: significantly lower
- cell death of hESCs (BGO1v) (hESC cell line BGO1v): high percentages of cell death
- IC50 (undifferentiated hESCs; Homo sapiens): ~2.5 µg/mL (≈ 8.49 µM)
- cytotoxic effect on differentiated cells (summary) [5]: relatively low
- cytotoxicity to differentiated cells (dose response curve) [5]: not cytotoxic
- killing of hESC in Trypan Blue assay (FIGS. 5 and 6) (hESC): wide spread killing of hESC
- relative fluorescence of treated murine feeder cells [6]: not significantly different
- selective killing of hESCs (FIG. 4) (hESCs; 2.5 μg/mL (8 μM)): selectively killed
- lowest concentration at which cytotoxic effects were seen (hESCs): 2.5 µg/mL
- selective killing of hESCs (FIG. 4) (hESCs; 12.5 μg/mL (40 μM)): selectively killed
- killing of hESCs (light microscopic images, FIG. 2) (hESCs; 40 μM): selective and rapid killing of hESCs
- cytotoxic effect on undifferentiated hESCs (summary) (hESCs): particularly high cytotoxic effect
- cell death, breast CSC cell line [2]: about 15%
- cell death of normal human primary astrocytes [7]: low percentages of cell death

SMILES: CCCCCCCCC(=O)NCc1ccc(O)c(O)c1 [JC011]
- ROS content compared to untreated cells (Wicell H1 cells): decreased significantly
- relative fluorescence of treated undifferentiated hESCs (H1 cells) [4]: significantly lower
- cell death of hESCs (BGO1v) (hESC cell line BGO1v): high percentages of cell death
- IC50 (in words) (undifferentiated hESCs): at the nanogram level
- IPS-foreskin cells killed compared to the control (IPS-foreskin cells): about 62%
- IPS-foreskin cells remained alive (IPS-foreskin cells): 38%
- cytotoxic effect on differentiated cells (summary) [5]: relatively low
- cytotoxicity to differentiated cells (dose response curve) [5]: not cytotoxic
- killing of differentiated hESCs (relative fluorescence versus control) ([5]; 40 μM, 24 hr, bGFG withdrawn, FIG. 9): did not kill differentiated hESCs
- killing of hESC in Trypan Blue assay (FIGS. 5 and 6) (hESC): wide spread killing of hESC
- relative fluorescence of treated murine feeder cells [6]: not significantly different
- selective killing of hESCs (FIG. 4) (hESCs; 2.5 μg/mL (8 μM)): selectively killed
- lowest concentration at which cytotoxic effects were seen (hESCs): 2.5 µg/mL
- selective killing of hESCs (FIG. 4) (hESCs; 12.5 μg/mL (40 μM)): selectively killed
- killing of hESCs (light microscopic images, FIG. 2) (hESCs; 40 μM): selective and rapid killing of hESCs
- cytotoxic effect on undifferentiated hESCs (summary) (hESCs): particularly high cytotoxic effect
- specificity (hESCs versus feeder cells), compared among JC010, JC011 and JC017 (hESCs): highest specificity
- IPS-DF19-9 cells killed compared to the control (IPS-DF19-9 cells): about 67%
- IPS-DF19-9 cells remained alive (IPS-DF19-9 cells): 33%
- cell death, breast CSC cell line [2]: about 15%
- cell death of normal human primary astrocytes [7]: low percentages of cell death

SMILES: CCCCCCCCCCC(=O)NCc1ccc(O)c(O)c1 [JC049]
- cell death, colon CSC cell line [1]: 15-33%
- cytotoxic effect on CSCs (summary) (CSCs): high cytotoxic effect
- cell death, breast CSC cell line [2]: 25-35%

SMILES: CCCCCCCCC(=O)NCc1ccc(OC)c(O)c1 [JC005]
- cell death of hESCs (BGO1v) (hESC cell line BGO1v; 40 μM, FIG. 8A): not cytotoxic
- selective killing of hESCs (FIG. 4) (hESCs; 12.5 μg/mL (40 μM)): No such killing effect
- cell death of normal human primary astrocytes ([7]; 40 μM, FIG. 8B): not cytotoxic

SMILES: CCCCCCNC(=O)NCc1ccc(O)c(O)c1 [JC017]
- cell death, colon CSC cell line [1]: 15-33%
- cell death of hESCs (BGO1v) (hESC cell line BGO1v): high percentages of cell death
- killing of feeder cells (summary) [8]: some feeder cells were also killed
- killing effect on hESCs (light microscopic images, FIG. 3) (hESCs; 40 μM, 12 hours, compared to FIG. 2): not as selective nor as potent as the effect of the analogues JC010 and JC011
- cytotoxic effect on undifferentiated hESCs (summary) (hESCs): particularly high cytotoxic effect
- specificity (hESCs versus feeder cells), compared among JC010, JC011 and JC017 (hESCs): lowest specificity
- cell death, breast CSC cell line [2]: about 15%
- cell death of normal human primary astrocytes [7]: low percentages of cell death

SMILES: CCCCCCNC(=O)Cc1cc(O)ccc1O [JC025]
- selective cytotoxic activity towards undifferentiated or dedifferentiated stem cells (hESC cell line BGO1v): did not exhibit any selective cytotoxic activity

SMILES: CCCCCCCCCC(=O)NCc1ccc(O)c(O)c1 [JC040]
- cell death, colon CSC cell line [1]: ~45%
- cytotoxic effect on CSCs (summary) (CSCs): high cytotoxic effect
- cell death, breast CSC cell line [2]: 25-35%
